# In patent US9133168B2, “Pyrimidine derivatives, preparation thereof, and pharmaceutical use thereof as akt(pkb) phosphorylation inhibitors” (SANOFI, priority 2010, dated 2015):
# Test system: AKT protein phosphorylated on serine 473 (P-AKT-S473) in PC3 human prostate carcinoma cells
# Assay: pAKT expression in PC3 human prostate carcinoma cells, MSD Multi-spot Biomarker detection (Test A)
# Type: cell-based
# Settings: Homo sapiens, PC-3, PC3 cells, 1 to 2 h incubation, P-AKT-S473, absolute IC50, mean of two independent experiments
# Procedure: The inhibitory activity of the molecules on AKT phosphorylation is measured using the MSD Multi-spot Biomarker detection technique from Meso Scale Discovery also described below. […] The primary antibody specific for […]) is coated on to an electrode in each well of the 96-well plates of the MSD kit: after the addition of a protein lysate to each well, the signal is visualized by adding a secondary detection antibody labeled with an electrochemiluminescent compound. The procedure followed is the one described in the kit. […] On day 2, the cells are incubated in the presence or absence of the test products for 1 to 2 h at 37° C. in the presence of 5% CO2. The molecules, diluted in dimethyl sulfoxide (DMSO Sigma #D2650), are added from a 20-times concentrated stock solution, the final percentage of DMSO being 0.1%. The molecules are tested either at a single concentration of less than or equal to 10 μM, or at increasing concentrations in a range that can extend from less than 1 nM to 10 μM. After this incubation, the cells are lysed for the preparation of the proteins. […] At this stage, the plates containing the lysates can be frozen at -20° C. or at -80° C. The wells of the 96 well plates of the MSD kit are saturated for 1 h at ambient temperature with the blocking solution of the MSD kit. Four washes are carried out with 150 μl of Tris Wash Buffer of the MSD kit. The lysates previously prepared are transferred into the 96-well multi-spot plates of the MSD kit and incubated for 1 h at ambient temperature, with shaking. Four washes are carried out with 150 μl of Tris Wash Buffer of the MSD kit. 25 μl of the MSD sulfo-tag detection antibody solution are added to the wells and incubated for 1 h at ambient temperature, with shaking. Four washes are carried out with 150 μl of Tris Wash Buffer of the MSD kit. 150 μl of Read Buffer of the MSD kit are added to the wells and the plates are read immediately on the S12400 instrument from Meso Scale Discovery. The instrument measures a signal for each well. Wells without cells and containing the lysis buffer serve to determine the background noise that will be subtracted from all the measurements (min). The wells containing cells in the absence of product and in the presence of 0.1% DMSO are considered to be the 100% signal (max). The percentage inhibition is calculated for each concentration of product tested, according to the following formula: (1-((test-min)/(max-min)))×100. […] Two independent experiments make it possible to calculate the mean of the IC50 values.
row,IC50 [nM],Structure (SMILES)
1,91,"[2H]C1([2H])COCC([2H])([2H])N1c1cc(=O)[nH]c(CC(=O)N2CC(C)(C)c3ccccc32)n1 [Example 18b, 2-[2-(3,3-dimethyl-2,3-dihydroindol-1-yl)-2-oxoethyl]-6-morpholin(D4)-4-yl-3H-pyrimidin-4-one]"
2,71,"C[C@@H]1Cc2ccccc2N1C(=O)Cc1nc(N2CCOCC2)cc(=S)n1C [Example 5e, 1-((R)-2-methyl-2,3-dihydroindol-1-yl)-2-(1-methyl-4-morpholin-4-yl-6-thioxo-1,6-dihydropyrimidin-2-yl)ethanone]"
3,40,"CC1Cc2ccc(F)cc2N1C(=O)Cc1nc(N2CCOCC2)c(F)c(=O)[nH]1 (stereo not drawn) [Example 32a, 5-fluoro-2-[2-((−)-6-fluoro-2-methyl-2,3-dihydroindol-1-yl)-2-oxoethyl]-6-morpholin-4-yl-3H-pyrimidin-4-one]"
4,57,"CC1CN(C(=O)Cc2nc(N3CCOCC3)cc(=O)[nH]2)c2cccc(O)c21 (single isomer, unassigned; (-)) [Example 12c, (−)-2-{2-[4-hydroxy-3-methyl-2,3-dihydro-1H-indol-1-yl]-2-oxoethyl}-6-(morpholin-4-yl)pyrimidin-4(3H)-one]"
5,272,"CN1CCN(Cc2cccc3c2CCN3C(=O)Cc2nc(N3CCOCC3)cc(=O)[nH]2)CC1 [Example 18d, 2-(2-{4-[(4-methylpiperazin-1-yl)methyl]-2,3-dihydro-1H-indol-1-yl}-2-oxoethyl)-6-(morpholin-4-yl)pyrimidin-4(3H)-one]"
6,42,"O=C(Cc1nc(N2CCOCC2)cc(=O)[nH]1)N1CCc2c(-c3ccccc3Cl)cccc21 [Example 14d, 2-{2-[4-(2-chlorophenyl)-2,3-dihydro-1H-indol-1-yl]-2-oxoethyl}-6-(morpholin-4-yl)pyrimidin-4(3H)-one]"
7,55,"C[C@@H]1Cc2ccccc2N1C(=O)Cc1nc(N2CCOCC2)c(Cl)c(=O)[nH]1 [Example 36a, 5-chloro-2-[2-((R)-2-methyl-2,3-dihydroindol-1-yl)-2-oxoethyl]-6-morpholin-4-yl-3H-pyrimidin-4-one]"
8,12,"O=C(Cc1nc(N2CCOC3CCCC32)cc(=O)[nH]1)N1CCc2c(F)cccc21 (stereo not shown) [Example 11b, 2-[2-(4-fluoro-2,3-dihydroindol-1-yl)-2-oxoethyl]-6-(hexahydrocyclopenta[1,4]oxazin-4-yl)-3H-pyrimidin-4-one]"
9,41,"C[C@H]1Cc2ccccc2N1C(=O)Cc1nc(N2CCOCC2)cc(=S)n1C [Example 4e, 1-((S)-2-methyl-2,3-dihydroindol-1-yl)-2-(1-methyl-4-morpholin-4-yl-6-thioxo-1,6-dihydropyrimidin-2-yl)ethanone]"
10,30,"O=C(Cc1nc(N2CCOCC2)cc(=O)[nH]1)N1c2ccccc2C2CCCC21 (stereo not shown) [Example 16d, 6-(morpholin-4-yl)-2-[2-oxo-2-(2,3,3a,8b-tetrahydrocyclopenta[b]indol-4(1H)-yl)ethyl]pyrimidin-4(3H)-one]"
11,31,"Cn1c(CC(=O)N2CCc3c(F)cccc32)nc(N2CCOCC2)cc1=S [Example 6e, 1-(4-fluoro-2,3-dihydroindol-1-yl)-2-(1-methyl-4-morpholin-4-yl-6-thioxo-1,6-dihydropyrimidin-2-yl)ethanone]"

# Same assay, conditions: PC3 cells, 1 to 2 h incubation, P-AKT-S473, absolute IC50, mean of two independent experiments
row,IC50 [nM],Structure (SMILES)
1,260,"CC(F)(C(=O)N1CCc2c(F)cccc21)c1nc(N2CCOCC2)cc(=O)[nH]1 (single isomer, unassigned; (+)) [Example 45c, (+)-2-[2-fluoro-1-(4-fluoro-2,3-dihydro-1H-indol-1-yl)-1-oxopropan-2-yl]-6-(morpholin-4-yl)pyrimidin-4(3H)-one]"
2,1,"CC1Cc2c(Cl)cccc2N1C(=O)Cc1nc(N2CCOCC2)cc(=O)[nH]1 (single isomer, unassigned; (-)) [Example 3c, (−)-2-{2-[4-chloro-2-methyl-2,3-dihydro-1H-indol-1-yl]-2-oxoethyl}-6-(morpholin-4-yl)pyrimidin-4(3H)-one]"
3,114,"CC1Cc2cc(F)c(F)cc2N1C(=O)Cc1nc(N2CCOCC2)cc(=O)n1C (stereo not drawn) [Example 24c, 2-{2-[(+)-5,6-difluoro-2-methyl-2,3-dihydro-1H-indol-1-yl]-2-oxoethyl}-3-methyl-6-(morpholin-4-yl)pyrimidin-4(3H)-one]"
4,27,"CC1Cc2ccccc2N1C(=O)Cc1nc(N2CCOCC2)cc(=O)[nH]1 (single isomer, unassigned; (+)) [Example 21b, (+)-2-[2-(2-methyl-2,3-dihydroindol-1-yl)-2-oxoethyl]-6-morpholin(D8)-4-yl-3H-pyrimidin-4-one]"
5,36,"CC1Cc2c(Br)cccc2N1C(=O)Cc1nc(N2CCOCC2)cc(=O)n1C (single isomer, unassigned; (+)) [Example 31c, (+)-2-{2-[4-bromo-2-methyl-2,3-dihydro-1H-indol-1-yl]-2-oxoethyl}-3-methyl-6-(morpholin-4-yl)pyrimidin-4(3H)-one]"
6,271,"O=C(Cc1nc(N2CCOC(CF)C2)cc(=O)[nH]1)Nc1ccc(F)cc1 (stereo not shown) [Example 3b, 2-[4-(2-fluoromethylmorpholin-4-yl)-6-oxo-1,6-dihydropyrimidin-2-yl]-N-(4-fluorophenyl)acetamide]"
7,16,"CC1Cc2cc(F)c(F)cc2N1C(=O)Cc1nc(N2CCOCC2)c(F)c(=O)[nH]1 (stereo not drawn) [Example 12a, 2-[2-((+)-5,6-difluoro-2-methyl-2,3-dihydroindol-1-yl)-2-oxoethyl]-5-fluoro-6-morpholin-4-yl-3H-pyrimidin-4-one]"
8,98,"CC1Cc2c(ccc(F)c2F)N1C(=O)Cc1nc(N2CCOCC2)c(F)c(=O)n1C (stereo not drawn) [Example 25a, 5-fluoro-2-[2-((+)-4,5-difluoro-2-methyl-2,3-dihydroindol-1-yl)-2-oxoethyl]-3-methyl-6-morpholin-4-yl-3H-pyrimidin-4-one]"
9,19,CC1Cc2c(Cl)cccc2N1C(=O)Cc1nc(N2CCOCC2)c(F)c(=O)[nH]1 (stereo not shown) [Example 19a]
10,15,"CC1Cc2c(ccc(F)c2F)N1C(=O)Cc1nc(N2CCOCC2)c(F)c(=O)[nH]1 (stereo not drawn) [Example 21a, 2-[2-((+)-4,5-difluoro-2-methyl-2,3-dihydroindol-1-yl)-2-oxoethyl]-5-fluoro-6-morpholin-4-yl-3H-pyrimidin-4-one]"
11,1,"CC1Cc2c(ccc(F)c2Cl)N1C(=O)Cc1nc(N2CCOCC2)cc(=O)[nH]1 (single isomer, unassigned; (-)) [Example 38c, (−)-2-{2-[4-chloro-5-fluoro-2-methyl-2,3-dihydro-1H-indol-1-yl]-2-oxoethyl}-6-(morpholin-4-yl)pyrimidin-4(3H)-one]"
12,24,"CC1Cc2c(F)cccc2N1C(=O)Cc1nc(N2CCOCC2)c(F)c(=O)[nH]1 (stereo not drawn) [Example 11a, 5-fluoro-2-[2-((−)-2-methyl-4-fluoro-2,3-dihydroindol-1-yl)-2-oxoethyl]-6-morpholin-4-yl-3H-pyrimidin-4-one]"
13,14,"CC1Cc2c(Br)cccc2N1C(=O)Cc1nc(N2CCOCC2)cc(=O)n1C (single isomer, unassigned; (-)) [Example 32c, (−)-2-{2-[4-bromo-2-methyl-2,3-dihydro-1H-indol-1-yl]-2-oxoethyl}-3-methyl-6-(morpholin-4-yl)pyrimidin-4(3H)-one]"
14,203,"CC1Cc2c(F)cccc2N1C(=O)Cc1nc(N2CCOCC2)c(F)c(=O)n1C (stereo not drawn) [Example 23a, 5-fluoro-2-[2-((−)-4-fluoro-2-methyl-2,3-dihydroindol-1-yl)-2-oxoethyl]-3-methyl-6-morpholin-4-yl-3H-pyrimidin-4-one]"
15,380,"CCC1Cc2ccccc2N1C(=O)Cc1nc(N2CCOCC2)cc(=O)[nH]1 (single isomer, unassigned; (+)) [Example 42c, (+)-2-[2-(2-ethyl-2,3-dihydroindol-1-yl)-2-oxoethyl]-6-morpholin-4-yl-3H-pyrimidin-4-one]"
16,4,"CC1Cc2c(F)cccc2N1C(=O)Cc1nc(N2CCOCC2)cc(=O)[nH]1 (single isomer, unassigned; (-)) [Example 27c, (−)-2-{2-[4-fluoro-2-methyl-2,3-dihydro-1H-indol-1-yl]-2-oxoethyl}-6-(morpholin-4-yl)pyrimidin-4(3H)-one]"
17,156,"CC1CN(c2cc(=O)[nH]c(CC(=O)N3CCc4c(F)cccc43)n2)CCO1 (single isomer, unassigned; (-)) [Example 9b, (−)-2-[2-(4-fluoro-2,3-dihydroindol-1-yl)-2-oxoethyl]-6-(2-methylmorpholin-4-yl)-3H-pyrimidin-4-one]"
